From patent US10450306B2, “Isoxazole analogs as FXR agonists and methods of use thereof” (Enanta Pharmaceuticals, Inc., priority 2016, dated 2019)
Where two headings read alike, the source gives them in different places.

Biological target: T1, human FXR (NR1H4) (Homo sapiens, UniProt Q96RI1)
T1 construct: host or cells: CHO (Chinese hamster ovary) reporter cells
T1 sequence (Q96RI1 1-486): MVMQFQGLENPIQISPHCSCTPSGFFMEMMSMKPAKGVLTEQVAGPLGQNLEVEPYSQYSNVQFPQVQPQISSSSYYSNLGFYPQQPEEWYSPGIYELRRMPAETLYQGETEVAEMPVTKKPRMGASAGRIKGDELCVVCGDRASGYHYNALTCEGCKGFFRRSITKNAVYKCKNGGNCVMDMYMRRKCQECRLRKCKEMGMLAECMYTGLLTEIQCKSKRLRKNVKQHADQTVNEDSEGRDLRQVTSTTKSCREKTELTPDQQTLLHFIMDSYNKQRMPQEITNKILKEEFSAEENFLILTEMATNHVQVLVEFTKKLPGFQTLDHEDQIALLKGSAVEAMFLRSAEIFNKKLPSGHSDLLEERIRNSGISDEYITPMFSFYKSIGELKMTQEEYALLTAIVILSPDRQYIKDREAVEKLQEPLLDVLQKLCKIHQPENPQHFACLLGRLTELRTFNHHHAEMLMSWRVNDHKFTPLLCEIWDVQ
Assay: Human FXR (NR1H4) Assay: Gal4 promoter driven luciferase reporter transactivation in CHO cells (Indigo Bioscience kit IB00601); on Efficacy (%): efficacy normalized to CDCA set as 100%
Format: cell-based
Summary of the method: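 CHO reporter cells expressing human FXR with an FXR-responsive promoter-driven luciferase were treated with compound dose series at 0.2% DMSO for 22 h at 37 °C. Luciferase activity was then read by luminescence as the measure of FXR activation.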

[1] = Human FXR (NR1H4) reporter assay, potency ranges

Row | SMILES | Emax (CHO; read-out: Efficacy (%)) | EC50 [1] | Emax (CHO, read-out: Efficacy (%))
1 | CCOc1cc(C(=O)OC)cc2sc(N3C4CCC3CC(NCc3c(-c5c(Cl)cccc5Cl)noc3C3CC3)C4)nc12 (stereo not shown) [Example 200-9] | 81% | 1 to 100 nM | –
2 | COc1cc2nc(N3C4CCC3CC(NCc3c(-c5c(Cl)cccc5Cl)noc3C3CC3)C4)sc2cc1C(=O)O (stereo not shown) [Example 200-8] | 73.5% | < 1 nM | –
3 | O=C(NS(=O)(=O)c1nccs1)c1ccc2nc(N3C4CCC3CC(NCc3c(-c5c(Cl)cccc5Cl)noc3C3CC3)C4)sc2c1 (stereo not shown) [Example 268] | 129% | 100 to 1000 nM | –
4 | COC(=O)c1ccc2cc(N3[C@@H]4CC[C@H]3C[C@@H](NCc3c(-c5c(Cl)cccc5Cl)noc3C3CC3)C4)ccc2c1 [Example 49, methyl 6-((1R,3R,5S)-3-(((5-cyclopropyl-3-(2,6-dichlorophenyl)isoxazol-4-yl)methyl)amino)-8-azabicyclo[3.2.1]octan-8-yl)-2-naphthoate] | 135% | 1 to 100 nM | –
5 | Cc1cc(C(=O)O)cc2sc(N3C4CCC3CC(NCc3c(-c5c(Cl)cccc5Cl)noc3C3CC3)C4)nc12 (stereo not shown) [Example 8] | 109% | < 1 nM | –
6 | COC(=O)c1cc(OC(C)C)c2nc(N3C4CCC3CC(NCc3c(-c5ccccc5C(F)(F)F)noc3C3CC3)C4)sc2c1 (stereo not shown) [Example 1403] | 119% | 1 to 100 nM | –
7 | CC1(S(=O)(=O)NC(=O)c2cc(F)c(N3C4CCC3CC(NCc3c(-c5ccccc5OC(F)(F)F)noc3C3CC3)C4)c(F)c2)CC1 (stereo not shown) [Example 900-12] | 67% | 1 to 100 nM | –
8 | CC(C)(C)c1ccc(S(=O)(=O)NC(=O)c2ccc3nc(N4C5CCC4CC(NCc4c(-c6c(Cl)cccc6Cl)noc4C4CC4)C5)sc3c2)cc1 (stereo not shown) [Example 284] | 54% | > 1000 nM | –
9 | CC(C)(C)S(=O)(=O)NC(=O)c1ccc2nc(N3C4CCC3CC(NCc3c(-c5c(Cl)cccc5Cl)noc3C3CC3)C4)sc2c1 (stereo not shown) [Example 240] | 245% | < 1 nM | –
10 | O=C(NS(=O)(=O)N1CCCCC1)c1cc2sc(N3C4CCC3CC(NCc3c(-c5c(Cl)cccc5Cl)noc3C3CC3)C4)nc2cc1F (stereo not shown) [Example 400-24] | 88.2% | < 1 nM | –
11 | CC1(S(=O)(=O)NC(=O)c2cc(F)c3nc(N4C5CCC4CC(NCc4c(-c6ccccc6OC(F)(F)F)noc4C4CC4)C5)sc3c2)CC1 (stereo not shown) [Example 900-2] | 109% | 1 to 100 nM | –
12 | CC1(S(=O)(=O)NC(=O)c2ccc3nc(N4C5CCC4CC(NCc4c(-c6ccccc6C6CC6)noc4C4CC4)C5)sc3c2)CC1 (stereo not shown) [Example 1422] | 94% | 1 to 100 nM | –
13 | Cc1cc(C(=O)O)cc2sc(N3C4CCC3CC(NCc3c(-c5ccccc5C(F)(F)F)noc3C3CC3)C4)nc12 (stereo not shown) [Example 1405] | 125% | 1 to 100 nM | –
14 | CC(C)Oc1cc(C(=O)NS(=O)(=O)C2(C)CC2)cc2sc(N3CCC(NCc4c(-c5c(Cl)cccc5Cl)noc4C4CC4)CC3)nc12 [Example 400-4] | 97.5% | 1 to 100 nM | –
15 | COC(=O)c1cc(OC(C)C)c2nc(N3CCC(NCc4c(-c5ccccc5OC(F)(F)F)noc4C4CC4)CC3)sc2c1 [Example 639] | 13% | 100 to 1000 nM | –
16 | COC(=O)c1cc2sc(N3C4CCC3CC(NCc3c(-c5c(Cl)cccc5Cl)noc3C3CC3)C4)nc2cc1OC (stereo not shown) [Example 200-7] | 74.5% | 1 to 100 nM | –
17 | CN(Cc1c(-c2c(Cl)cccc2Cl)noc1C1CC1)[C@H]1C[C@H]2CC[C@@H](C1)N2c1nc2ccc(C(=O)NS(=O)(=O)C3CC3)cc2s1 [Example 292] | 212% | 1 to 100 nM | –
18 | O=C(NS(=O)(=O)C1CC1)c1cc(F)c2nc(N3C4CCC3CC(NCc3c(-c5c(Cl)cccc5Cl)noc3C3CC3)C4)sc2c1 (stereo not shown) [Example 298] | 155% | 1 to 100 nM | –
19 | CC1(S(=O)(=O)NC(=O)c2ccc3nc(N4CCC(NCc5c(-c6c(Cl)cccc6Cl)noc5C5CC5)CC4)sc3c2)CC1 [Example 305] | 139% | 100 to 1000 nM | –
20 | Cc1c(C(=O)NS(=O)(=O)C2(C)CC2)ccc2nc(N3C4CCC3CC(NCc3c(-c5c(Cl)cccc5Cl)noc3C3CC3)C4)sc12 (stereo not shown) [Example 400-13] | 83.3% | 1 to 100 nM | –
21 | CC1(S(=O)(=O)NC(=O)c2ccc3nc(N4C5CCC4CC(NCc4c(-c6ccccc6C(F)(F)F)noc4C4CC4)C5)oc3c2)CC1 (stereo not shown) [Example 1425] | 74% | 100 to 1000 nM | –
22 | COC(=O)c1cccc(N2CCN(Cc3c(-c4c(Cl)cccc4Cl)noc3C3CC3)CC2)c1 [Example 187] | – | > 1000 nM | 64%
23 | CCOC(=O)c1ccc2nc(N3[C@@H]4CC[C@H]3C[C@@H](N(C)Cc3c(-c5c(Cl)cccc5Cl)noc3C3CC3)C4)sc2c1 [Example 165, ethyl 2-((1R,3R,5S)-3-(((5-cyclopropyl-3-(2,6-dichlorophenyl)isoxazol-4-yl)methyl)(methyl)amino)-8-azabicyclo[3.2.1]octan-8-yl)benzo[d]thiazole-6-carboxylate] | 236% | 1 to 100 nM | –
